How the values were obtained:
Type in all cases: cell-based, human
[1] = test system: STAT3-TATA-Luc reporter in MDA-MB-231 cells; assay: STAT3 dual-luciferase reporter assay; conditions: MDA-MB-231, 24 h treatment
Protocol: Figure 3 MDA-MB-231 cells were transfected with STAT3-TATA-Luc reporter and Renilla luciferase reporter plasmids. After 24 h, cells were treated with indicated concentrations of PMM-172 or Stattic for 24 h and then luciferase intensity was measured. Results are fold change ± SD of three independent experiments, *P < 0.05, **P < 0.01.
Cells were seeded in 24 well plates and transiently transfected together with STAT3 reporter plasmid 4 × M67 pTATA TK-Luc (0.2 μg/per well, Addgene, USA) and Renilla luciferase control reporter plasmid pRL-CMV (0.1 μg/per well, promega, USA), using lipofectamine 2000 (Invitrogen, USA). Then the cells were incubated with complete medium for 24 h with PMM-172 or Stattic. Following the treatment, the cells were harvested in 100 μL of passive lysis buffer (Promega, USA) in each well. A 25 μL aliquot of cell lysate was subjected to a luciferase assay by using the dual-luciferase assay kit (Promega, USA). STAT3 luciferase activity was measured by EnVision Mutilabel Reader (Perkin Elmer, USA). Relative luciferase activity was calculated after the activity of STAT3-dependent firefly luciferase had been normalized to that of Renilla luciferase. All values are expressed as - fold induction relative to basal activity.

[2] = test system: Bcl-2, Bcl-xL, survivin and cyclin D1 in MDA-MB-231 cells; assay: Western blot of STAT3 downstream target genes expression; conditions: MDA-MB-231, 24 h
Protocol: Figure 7 MDA-MB-231 cells were treated with indicated concentrations of PMM-172 or Stattic for 24 h, the expression levels of STAT3 in cytoplasmic and nuclear extracts were examined and relative expression levels were analyzed by Image J software. β-actin and Lamin B1 served as markers of cytoplasmic and nuclear extractions, respectively. […] (C) MCF-10A cells were treated with the indicated concentrations of PMM-172 for 24 h. PMM-172 had no effect on the level of the pSTAT3 level in MCF-10A cells. […] Data were shown as mean ± SD from three independent experiments, **P < 0.01. Cropped blots/gels were used in the figure and the gels had been run under the same experimental conditions; the full-length blots/gels are presented in Supplementary Figure S3.
STAT3 target genes are vital to the dysfunctional biology processes induced by the aberrantly activated STAT3. Therefore, we investigated whether PMM-172 suppresses the expression of STAT3-regulated genes related to cell survival, proliferation and apoptosis in MDA-MB-231 cells.
Cells were rinsed twice with cold PBS and then lysed with RIPA buffer containing a protease inhibitor mixture at 1:100 dilution on ice for 30 min. Insoluble components of cell lysates were removed by centrifugation (4 °C, 12000 rmp, 10 min), and protein concentrations were measured using a Pierce BCA protein assay kit. […]

MDA-MB-231 cells = assay: Annexin V/PI double staining apoptosis assay (flow cytometry); conditions: for percentage of cell apoptosis (early and late apoptotic cells): 24 h, MDA-MB-231, control 3.12%
Protocol: To determine whether PMM-172 induced apoptosis, Annexin V/PI double staining assay was conducted. MDA-MB-231 cells were treated with various concentrations of PMM-172 for 24 h, and the percentage of apoptotic cells was markedly elevated in a dose-dependent manner. Likewise, MDA-MB-231 cells were treated with corresponding doses of Stattic. […] The percentages of cell apoptosis 3.12%, 8.12%, 16.81%, 62.74% corresponded to the concentration of PMM-172 0, 2, 4 and 8 μM, respectively, including both the early and the late apoptotic cells. Clearly, PMM-172 can cause cell apoptosis more effectively than Stattic. Moreover, an extend time-course apoptosis analysis of MDA-MB-231 cells treated with 4 μM PMM-172 was carry out. […] To further assess the pro-apoptotic effect of PMM-172, we evaluated the cleavage of poly (ADP-ribose) polymerase (PARP) and caspase 3 in MDA-MB-231 cells after 24 h treatment with PMM-172. In this case, the active form of PARP involved in DNA repair and programmed cell death is considered as the hallmark of apoptosis.
Figure 4 The effect of PMM-172 on the cell apoptosis of MDA-MB-231 cells. (A) MDA-MB-231 cells were treated with various concentrations of PMM-172 or Stattic for 24 h, or treated with 4 μM PMM-172 for different time. Apoptosis was analyzed by flow cytometry by using Annexin V/PI double staining. (B) The percentage of apoptotic cells in MDA-MB-231 cells treated with various concentrations of PMM-172 for 24 h. (C) The percentage of apoptotic cells in MDA-MB-231 cells treated with 4 μM PMM-172 for different time. (D) The percentage of apoptotic cells in MDA-MB-231 cells treated with various concentrations of Stattic for 24 h. (E) PARP and caspase 3 cleavage in MDA-MB-231 cells after treated with various concentrations of PMM-172 for 24 h were detected by using Western blot analysis. The relative expression level was analyzed by Image J software. […]
Approximately 10^5 cells/well were plated in a 24 well plate and allowed to adhere. […] The samples were then analyzed by a FACSCalibur flow cytometer (Becton Dickinson, San Jose, CA, USA).

COc1cc(OC)cc(-c2nnc(SCC(=O)O[C@H](CC=C(C)C)C3=CC(=O)c4c(O)ccc(O)c4C3=O)o2)c1 [PMM-172, (R)-1-(5,8-dihydroxy-1,4-dioxo-1,4-dihydronaphthalen-2-yl)-4-methylpent-3-en-1-yl 2-((5-(3,5-dimethoxyphenyl)-1,3,4-oxadiazol-2-yl)thio)acetate]
STAT3 luciferase activity [1]: decreased the STAT3 luciferase activity in a dose-dependent manner | expression of STAT3 target genes Bcl-2, Bcl-xL, survivin and cyclin D1 [2]: down-regulated the expression of Bcl-2, Bcl-xL, survivin and cyclin D1 in a dose-dependent manner | percentage of cell apoptosis (early and late apoptotic cells) (MDA-MB-231 cells; 4 μM): 16.81% | percentage of cell apoptosis (early and late apoptotic cells) (MDA-MB-231 cells; 8 μM): 62.74% | induction of apoptosis (MDA-MB-231 cells; MDA-MB-231, Annexin V/PI): induced apparent apoptosis in MDA-MB-231 cells in dose- and time- dependent manners

Reference: paper PMC5460289, “Identification of New Shikonin Derivatives as Antitumor Agents Targeting STAT3 SH2 Domain” (Scientific Reports, 2017)
